The record followed here is ChEMBL document CHEMBL1127557, “Novel potassium-channel openers: preparation and pharmacological evaluation of racemic and optically active N-(6-amino-3-pyridyl)-N'-bicycloalkyl-N"-cyanoguanidine derivatives” (J Med Chem, 1994).

The species named for data set [1] is Rattus norvegicus. Nature of the data set: Compound was tested for oral diuretic effect on spontaneously hypertensive rats by measuring the potassium excretion at vehicle concentration. Type of data set: ADME, organism-based, Urine. Conditions: in vivo.
The test system of data set [2] is Rattus norvegicus. The experiment in a line: Compound was tested for oral diuretic effect on spontaneously hypertensive rats by measuring the excretion of sodium at 1 mg/kg concentration. The class given is ADME, organism-based, Urine. More on the design: dose 1 mg/kg, route oral. Conditions: in vivo.
Data set [3] is filed under the species Rattus norvegicus. The experiment in a line: Compound was tested for vasorelaxant activity on the basis of ability to relax endothelium-denuded rat aortic strips toned with 20 mM KCl. The class given is functional, Aorta.
Data set [4] in a line: Ratio between Na+ and K+ excretion values at a dose of 1 mg/kg. Type of data set: ADME, organism-based. More on the design: dose 1 mg/kg. Conditions: in vivo.
The species named for data set [5] is Rattus norvegicus. The experiment in a line: Compound was tested for oral diuretic effect on spontaneously hypertensive rats by measuring the urinary volume at vehicle concentration. The class given is functional, Urine.
Data set [6] deals with Rattus norvegicus. The experiment in a line: Compound was tested for hypotensive activity in anesthetized normotensive rats by intravenous injection. Systolic blood pressure measured 30 min after injection. The class given is functional.
Data set [7] is filed under the species Rattus norvegicus. The experiment in a line: Compound was tested for oral diuretic effect on spontaneously hypertensive rats by measuring the excretion of sodium at vehicle concentration. The class given is ADME, organism-based, Urine. Conditions: in vivo.
Data set [8] relates to Rattus norvegicus. Nature of the data set: Compound was tested for oral diuretic effect on spontaneously hypertensive rats by measuring the potassium excretion at 5 mg/kg concentration. Type of data set: ADME, organism-based, Urine. Conditions: in vivo. More on the design: dose 5 mg/kg, route oral.
The subject of data set [9] is Rattus norvegicus. Nature of the data set: Compound was tested for oral diuretic effect on spontaneously hypertensive rats by measuring the potassium excretion at 1 mg/kg concentration. Type of data set: ADME, organism-based, Urine. More on the design: dose 1 mg/kg, route oral. Conditions: in vivo.
For data set [10], the system named is Rattus norvegicus. The experiment in a line: Compound was tested for oral diuretic effect on spontaneously hypertensive rats by measuring the excretion of sodium at 5 mg/kg concentration. Conditions: in vivo. Type of data set: ADME, organism-based, Urine. More on the design: dose 5 mg/kg, route oral.
The test system of data set [11] is Rattus norvegicus. Nature of the data set: Compound was tested for oral diuretic effect on spontaneously hypertensive rats by measuring the urinary volume at 1 mg/kg concentration. The class given is functional, Urine.
The test system of data set [12] is Rattus norvegicus. Nature of the data set: Compound was tested for oral diuretic effect on spontaneously hypertensive rats by measuring the urinary volume at 5 mg/kg concentration. Type of data set: functional, Urine.
Data set [13] can be described thus: Ratio between Na+ and K+ excretion values at a dose of 5 mg/kg. The class given is ADME, organism-based. More on the design: dose 5 mg/kg. Conditions: in vivo.
For data set [14], the system named is Rattus norvegicus. The experiment in a line: Compound was tested for oral diuretic effect on spontaneously hypertensive rats by measuring the excretion of sodium at 5 mg/kg concentration. The class given is ADME, organism-based, Urine. More on the design: dose 5 mg/kg, route oral. Conditions: in vivo.
Data set [15] relates to Rattus norvegicus. The experiment in a line: Compound was tested for hypotensive activity in anesthetized normotensive rats by intravenous injection, Systolic blood pressure measured 30 min after injection. Type of data set: functional. Conditions: 0.5 h.
Where [16] appears, read: Rattus norvegicus, Blood, iv, 0.5 h, read-out: ED30.

pIC50: −log10 of the molar value.

The term pIC50 denotes −log10 of the IC50, conventionally taken in molar units. A higher pIC50 goes with a low IC50. Take `CC(N/C(=N\C#N)Nc1ccncc1)C(C)(C)C` (stereo not given) [PINACIDIL ANHYDROUS]: the figures for the “K+ excretion” value in data set [1], in data set [8] and in [9] were 1.078 m equiv 5hr-1 kg-1, 0.584 m equiv 5hr-1 kg-1 and 1.546 m equiv 5hr-1 kg-1, respectively. Further, the “Na+ excretion” value came out at 1.27 m equiv 5hr-1 kg-1 in data set [2], 1.357 m equiv 5hr-1 kg-1 in [7] and 0.078 m equiv 5hr-1 kg-1 in data set [10]. Besides, in data set [3] (Rattus norvegicus, Aorta), the pIC50 is 6.42. Moreover, the Ratio in [4] was 0.78; in data set [13], 0.12. Besides, the Urinary volume was 5.15 ml kg-1 5hr-1 in data set [5], 7.62 ml kg-1 5hr-1 in data set [11] and 2.56 ml kg-1 5hr-1 in data set [12]. For the same compound, the ED30 in data set [6] (setting [16]) was found to be 0.15 mg/kg.
`N#CN/C(=N\[C@@H]1C[C@H]2CC[C@@H]1C2)Nc1ccc(N)nc1` (stereo in doubt; (-)-9) had a pIC50 in data set [3] (Rattus norvegicus, Aorta) of 6.56. Besides, the ED30 in data set [6] (setting [16]) turned out to be 0.57 mg/kg.
On to `N#CN/C(=N\[C@@H]1C[C@H]2CC[C@@H]1C2)Nc1ccc(N)nc1` (stereo in doubt; (+)-9), for which, in data set [3], the pIC50 is 6.57. In [6], this compound displayed an ED30 of 0.4 mg/kg.
Regarding `Cl.N#CN/C(=N\C1CC2CCC1C2)Nc1ccc(N)nc1` (stereo not given), the pIC50 in [3] (Rattus norvegicus, Aorta) was 6.23. Further, the ED30 in data set [6] (setting [16]) was 0.74 mg/kg.
`C[C@]12CC[C@H](C[C@@H]1/N=C(\NC#N)Nc1ccc(N)nc1)C2.Cl` showed a pIC50 in [3] of 7.15. The ED30 in data set [6] was 0.28 mg/kg.
As to `C[C@]12CC[C@H](C[C@@H]1/N=C(\NC#N)Nc1ccc(N)nc1)C2.Cl` (racemic), the “K+ excretion” value in data set [1] is reported as 0.8 m equiv 5hr-1 kg-1; in [8] it was 0.515 m equiv 5hr-1 kg-1; in [9], 0.747 m equiv 5hr-1 kg-1. Further, the “Na+ excretion” value in data set [2] is given as 0.8 m equiv 5hr-1 kg-1; in data set [7], 1.072 m equiv 5hr-1 kg-1; in data set [10] it was 0.311 m equiv 5hr-1 kg-1. The same compound had a pIC50 in data set [3] of 7.10. The Ratio is recorded as 1.08 in data set [4] and 0.59 in data set [13]. The Urinary volume is on record as 6.84 ml kg-1 5hr-1 in [5], 6.92 ml kg-1 5hr-1 in data set [11] and 7.31 ml kg-1 5hr-1 in data set [12]. Further, the ED30 in [6] (setting [16]) was determined as 0.2 mg/kg.
Compound `CC1(C)Oc2ccc(C#N)cc2[C@@H](N2CCCC2=O)[C@@H]1O` [CROMAKALIM] had a pIC50 in data set [3] (Rattus norvegicus, Aorta) of 6.96. Further, the ED30 in data set [6] (setting [16]) came out at 0.11 mg/kg.
Take `C[C@]12CC[C@H](C[C@@H]1/N=C(\NC#N)Nc1ccc(N)nc1)C2`: the pIC50 in [3] (Rattus norvegicus, Aorta) was 6.93. In addition, in [6] (setting [16]), the ED30 worked out at 0.18 mg/kg.
As to `Cl.N#CN/C(=N\[C@H]1C[C@H]2CC[C@@H]1C2)Nc1ccc(N)nc1` (racemic), the entries for the “K+ excretion” value in data set [1], in [8] and in data set [9] were 0.8 m equiv 5hr-1 kg-1, 1.46 m equiv 5hr-1 kg-1 and 0.646 m equiv 5hr-1 kg-1, respectively. Also, the “Na+ excretion” value in [2] amounted to 0.89 m equiv 5hr-1 kg-1; in data set [7], 1.072 m equiv 5hr-1 kg-1; in [10], 1.865 m equiv 5hr-1 kg-1. Moreover, the pIC50 in data set [3] is 6.41. In addition, the Ratio in data set [4] is 1.54; in data set [13] it was 1.27. Moreover, the values for the Urinary volume in [5], in [11] and in [12] were 6.84 ml kg-1 5hr-1, 5.53 ml kg-1 5hr-1 and 18.37 ml kg-1 5hr-1, respectively. Also, the ED30 in data set [6] (setting [16]) came out at 0.17 mg/kg.
For `N#CN/C(=N\[C@H]1C[C@H]2CC[C@@H]1C2)Nc1ccc(N)nc1`, the pIC50 in data set [3] was 7.05. For the same compound, in [6] (setting [16]), the ED30 turned out to be 0.1 mg/kg.
With `Cl.N#CN/C(=N\[C@@H]1CC2CCC1C2)Nc1ccc(N)nc1` (mixture of isomers), the results for the “Na+ excretion” value in data set [14], in data set [2] and in [7] were 0.694 m equiv 5hr-1 kg-1, 1.523 m equiv 5hr-1 kg-1 and 1.357 m equiv 5hr-1 kg-1, respectively. Further, the “K+ excretion” value in [1] stood at 1.078 m equiv 5hr-1 kg-1; in data set [8], 1.249 m equiv 5hr-1 kg-1; in [9], 1.35 m equiv 5hr-1 kg-1. Further, the Ratio in data set [4] was 1.08; in [13], 0.5. Also, the ED30 in data set [15] worked out at 0.51 mg/kg. The Urinary volume in [5] is on record as 5.15 ml kg-1 5hr-1; in data set [11] it was 8.77 ml kg-1 5hr-1; in data set [12], 4.68 ml kg-1 5hr-1.
